Test results reported in patent US20200046703A1, “COMPOSITIONS AND METHODS FOR TREATMENT OF THE SIDE-EFFECTS ASSOCIATED WITH ADMINISTRATION OF THERAPEUTIC AGENTS” (ASYMMETRIC THERAPEUTICS, LLC, priority 2018, published 2020).

Assays:
proliferating HPEK cells = test: Proliferating HPEK cell viability with/without 5-FU; format: cell-based, human; conditions: with 5-FU 10 μM, 120 hours
Description: (§1) In another set of experiments, the results of which are shown in Table 2, proliferating HPEK cells, commonly used to assess skin tissue toxicity, were exposed to the clinically-relevant dose of 10 μM of 5-FU and different concentrations of oxypurinol, either alone or with different concentrations of adenine or uracil, using standard tissue culture methods and incubated at 37° C. Oxypurinol concentrations of 0.03 mM, 0.1 mM, and 0.3 mM were tested. Adenine and uracil concentrations of 0.1 mM and 0.3 mM were tested. The relative viability of the cells was determined after 120 hours.

proliferating HGEP cells = test: Proliferating HGEP cell viability with/without 5-FU; format: cell-based, human; conditions: with 5-FU 10 μM, 120 hours
Description: as §1, with “one” for “another”, “1,” for “2,”, “HGEP” for “HPEK”, “oral mucosal” for “skin tissue”

confluent HPEK cells = test: Confluent HPEK cell viability with/without 5-FU; format: cell-based, human; conditions: for relative cell viability (AVG): 120 hours; for Relative Protection against 5-FU toxicity / Relative Growth in the presence of 5-FU: HPEK confluent cells; for Relative Protection against 5-FU toxicity: fraction of viability loss prevented; for Relative Growth in the presence of 5-FU: viability with 5-FU divided by viability without 5-FU
Description: Oxypurinol and allopurinol concentrations of 0.3 mM, 1.0 mM, and 3.0 mM, which are ten times higher than those used in the first set of experiments, were tested. An adenine concentration of 0.3 mM, which was the higher concentration used in the first set of experiments, was tested. The relative viability of the cells was determined after 120 hours.

confluent NHEK cells = test: Confluent NHEK cell viability with/without 5-FU; format: cell-based, human; conditions: for relative cell viability (AVG): 120 hours; for Relative Growth in the presence of 5-FU / Relative Protection against 5-FU toxicity: NHEK; for Relative Protection against 5-FU toxicity: fraction of viability loss prevented
Description: In yet another set of experiments, the results of which are shown in Table 4, confluent NHEK cells were exposed to the clinically-relevant dose of 10 μM of 5-FU and different concentrations of sodium hydroxide, oxypurinol, or allopurinol using standard tissue culture methods and incubated at 37° C. Sodium hydroxide concentrations of 1 mM, 2 mM, 3 mM, and 4 mM were tested. Oxypurinol and allopurinol concentrations of 0.1 mM, 0.3 mM, 1.0 mM, and 3.0 mM were tested, both in the presence and in the absence of 10 μM of 5-FU. The relative viability of the cells was determined after 120 hours. The sodium hydroxide trials were only performed to serve as a control.

hand-foot syndrome = conditions: allopurinol at 3%, topical; cited from earlier work
[1] = test system: mucositis toxicity of 5-FU; conditions: maximally-tolerated oral dose of 800 mg/day; 5 μM of 5-FU; cited from earlier work

## Nc1ncnc2nc[nH]c12 [Adenine, adenine, reference compound]
Proliferating HPEK cells; 0.1 mM
  relative cell viability (AVG): 0.6214
Proliferating HPEK cells; 0.3 mM
  relative cell viability (AVG): 0.5985
Proliferating HGEP cells; 0.1 mM
  relative cell viability (AVG): 0.7549
Proliferating HGEP cells; 0.3 mM
  relative cell viability (AVG): 0.6389
Confluent HPEK cells; 0.3 mM, no 5-FU
  relative cell viability (AVG): 1.3784
Confluent HPEK cells; 0.3 mM, with 5-FU 10 μM
  relative cell viability (AVG): 0.7456

## Oc1ncnc2[nH]ncc12 [Allopurinol, allopurinol]
Confluent NHEK cells; 0.1 mM to 3.0 mM
  effect on cell viability in the presence of 5-FU: protective effect for confluent NHEK cells that was generally less than oxypurinol
Confluent NHEK cells; 0.1 mM, no 5-FU
  relative cell viability (AVG): 1.0426
Confluent NHEK cells; 0.1 mM, with 5-FU 10 μM
  relative cell viability (AVG): 0.6303
Confluent NHEK cells; 0.1 mM, with 5-FU 10 μM, listed as allopurinol
  relative cell viability (AVG): 0.63
Confluent NHEK cells; 0.3 mM, no 5-FU
  relative cell viability (AVG): 1.1285
Confluent NHEK cells; 0.3 mM, with 5-FU 10 μM
  relative cell viability (AVG): 0.5100
Confluent NHEK cells; 0.3 mM, with 5-FU 10 μM, listed as allopurinol
  relative cell viability (AVG): 0.51
Confluent NHEK cells; 1.0 mM, no 5-FU
  relative cell viability (AVG): 1.1137
Confluent NHEK cells; 1.0 mM, with 5-FU 10 μM
  relative cell viability (AVG): 0.4370
Confluent NHEK cells; 1.0 mM, with 5-FU 10 μM, listed as allopurinol
  relative cell viability (AVG): 0.44
Confluent NHEK cells; 3.0 mM, FIG. 2
  Relative Growth in the presence of 5-FU: less than 41%
Confluent NHEK cells; 3.0 mM, no 5-FU
  relative cell viability (AVG): 1.0640
Confluent NHEK cells; 3.0 mM, with 5-FU 10 μM
  relative cell viability (AVG): 0.4348
Confluent NHEK cells; 3.0 mM, with 5-FU 10 μM, listed as allopurinol
  relative cell viability (AVG): 0.44
Confluent NHEK cells; 0.1 mM
  Relative Protection against 5-FU toxicity: 0.3664
Confluent NHEK cells; 0.1 mM, viability with 5-FU divided by viability without 5-FU
  Relative Growth in the presence of 5-FU: 0.6045
Confluent NHEK cells; 0.3 mM
  Relative Protection against 5-FU toxicity: 0.1603
Confluent NHEK cells; 0.3 mM, viability with 5-FU divided by viability without 5-FU
  Relative Growth in the presence of 5-FU: 0.4519
Confluent NHEK cells; 1.0 mM
  Relative Protection against 5-FU toxicity: 0.0352
Confluent NHEK cells; 1.0 mM, viability with 5-FU divided by viability without 5-FU
  Relative Growth in the presence of 5-FU: 0.3924
Confluent NHEK cells; 3.0 mM
  Relative Protection against 5-FU toxicity: 0.0314
Confluent NHEK cells; 3.0 mM, viability with 5-FU divided by viability without 5-FU
  Relative Growth in the presence of 5-FU: 0.4086
Confluent NHEK cells; range of 0.1 mM to 3.0 mM
  effect on cell viability in the absence of 5-FU: small positive effect
hand-foot syndrome
  therapeutic benefit against HFS: did not achieve an adequate therapeutic benefit
[1]
  prevention of mucositis toxicity of 5-FU: does not prevent the mucositis toxicity
Confluent HPEK cells; 0.3 mM, no 5-FU
  relative cell viability (AVG): 1.1870
Confluent HPEK cells; 0.3 mM, with 5-FU 10 μM
  relative cell viability (AVG): 0.7303
Confluent HPEK cells; 1.0 mM, no 5-FU
  relative cell viability (AVG): 1.2411
Confluent HPEK cells; 1.0 mM, with 5-FU 10 μM
  relative cell viability (AVG): 0.7748
Confluent HPEK cells; 3.0 mM, no 5-FU
  relative cell viability (AVG): 1.0410
Confluent HPEK cells; 3.0 mM, with 5-FU 10 μM
  relative cell viability (AVG): 0.7528
Confluent HPEK cells; 0.3 mM
  Relative Protection against 5-FU toxicity: 0.2464
  Relative Growth in the presence of 5-FU: 0.6152
Confluent HPEK cells; 1.0 mM
  Relative Protection against 5-FU toxicity: 0.3709
  Relative Growth in the presence of 5-FU: 0.6243
Confluent HPEK cells; 3.0 mM
  Relative Protection against 5-FU toxicity: 0.3092
  Relative Growth in the presence of 5-FU: 0.7231
Confluent HPEK cells; concentration range of 0.3 mM to 3.0 mM
  effect on cell viability in the presence of 5-FU: protective effect
